In patent US20110082133A1, “PYRIDONE COMPOUNDS” (priority 2008, published 2011):
Counter-ions that a name gives are not always drawn.

Biological target: T1, rat EP2 receptor (Rattus norvegicus, UniProt Q62928)
T1 construct: expressed in transfected cells
Test: Rat EP2 receptor agonistic/antagonistic action (cAMP assay, CHO-K1 stable expression cells)
Assay type: cell-based
Settings: cAMP increasing action, 1 μM PGE2 taken as 100%, NE means that the action has no significance
Protocol: For a rat EP2 receptor, stable expression cells were used to carry out a cAMP assay. The agonistic activity was evaluated by the cAMP increasing action by the test compound, and the antagonistic activity was evaluated by the inhibiting action of the test compound on the cAMP increasing action by PGE2.
The rat EP2 receptor cDNA was subcloned into an expression vector (pcDNA3.1-V5-His-topo, manufactured by Invitrogen Corporation). This expression vector was introduced into CHO-K1 cells (American Type Culture Collection) to prepare a rat EP2 receptor stable expression cell line. These cells were seeded onto a 96-well microplate at 0.5×10^4 cell/well, and used for the experiment the next day. The culture medium of each well was removed by suction, 100 μL/well of an assay culture medium (α-MEM containing 2 μM indomethacin and 0.1% bovine serum albumin) was added thereto, and incubated at 37° C. for 1 hour. The culture medium was removed again by suction, and replaced with 100 μL/well of an assay culture medium containing a test compound and 1 mM IBMX. […] Using a cAMP femto 2 kit (manufactured by Cis Bio International), the cAMP concentration in the cell lysate was measured. In this connection, the cAMP increasing action (%) was calculated with the cAMP increasing action by 1 μM PGE2 was taken as 100%.

T1 sequence (Q62928 whole entry): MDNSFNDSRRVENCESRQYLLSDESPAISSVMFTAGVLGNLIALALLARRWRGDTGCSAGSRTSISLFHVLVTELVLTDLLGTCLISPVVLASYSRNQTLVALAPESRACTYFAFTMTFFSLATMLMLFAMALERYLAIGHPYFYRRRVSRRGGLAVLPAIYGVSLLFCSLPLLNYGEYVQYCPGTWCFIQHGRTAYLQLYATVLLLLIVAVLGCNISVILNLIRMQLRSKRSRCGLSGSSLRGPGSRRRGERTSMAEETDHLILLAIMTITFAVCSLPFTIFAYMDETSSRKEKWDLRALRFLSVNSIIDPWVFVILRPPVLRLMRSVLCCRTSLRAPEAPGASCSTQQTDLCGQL

| SMILES | Rat EP2 Agonistic Action 10 μM [%] |
| --- | --- |
| CCC[C@H]1CCCN1Cc1c(Cl)cc(Cl)c(=O)n1CCc1ccc(C(=O)O)cc1 [Example 17, 4-{2-[3,5-dichloro-2-oxo-6-{[(2S)-2-propylpyrrolidin-1-yl]methyl}pyridin-1(2H)-yl]ethyl}benzoic acid trifluoroacetate] | 14 |
| CN(Cc1c(Cl)cc(Cl)c(=O)n1CCc1ccc(C(=O)O)cc1)c1cccc(Cl)c1 [Example 160] | 19 |
